Experimental data: US20230270753A1, “COMBINATIONS OF GABAA ALPHA 5 AGONISTS AND SV2A INHIBITORS AND METHODS OF USING IN THE TREATMENT OF COGNITIVE IMPAIRMENT” (AGENEBIO, INC., priority 2020, published 2023)
Where two headings read alike, the source gives them in different places.

What was measured:
Assay type in all cases: in vivo, rat
[1] = system: aged-impaired rats; experiment: Radial arm maze, 5-hr delay, acute Compound 1 via PO (Example 7); settings: Compound 1 10 mg/kg PO 30-40 min before information trial
From the text: All rats were screened in a standardized assessment of spatial cognition before the commencement of drug studies. The background assessment used a well-established Morris water maze protocol as described in detail elsewhere (Gallagher et al, 1993). Briefly, the rats were trained for 8 days (three trials per day) to locate a camouflaged escape platform that remained at the same location throughout training in a water maze. Every sixth trial consisted of a probe trial (free swim with no escape platform) that served to assess the development of a spatially localized search for the escape platform. During these probe trials, a learning index was generated from the proximity of the rat to the escape platform and was used to define impairment in the aged rats. The learning index is the sum of weighted proximity scores obtained during probe trials, with low scores reflecting a search near the escape platform and high scores reflecting searches farther away from the platform (Gallagher et al, 1993). Cue training (visible escape platform) occurred on the last day of training to test for sensorimotor and motivational factors independent of spatial learning. Aged rats with impaired spatial memory performance (i.e., those with learning index scores outside the young ‘normative’ range) but successful cued training performance were used for the studies as described below. […]

[2] = system: aged-impaired rats; experiment: Water maze, acute and chronic Compound 1 (Example 7); settings: Compound 1 10 mg/kg IP
From the text: Rats were trained and tested in a novel water maze environment to assess the effect of the treatments. The water maze used here was housed in a different room and was surrounded by curtains with a novel set of patterns relative to the maze used for initial assessment of cognitive status. The training and testing protocol used was identical to the spatial learning-activated protocol described in Haberman et al., (2008, Proceedings of the National Academy of Sciences USA, 105, 10601-10606). The task required rats to swim to a […] escape platform at a fixed location in the presence of spatial cues for 8 training trials with an inter-trial interval of 8 min. An hour after the last training trial, rats were given a probe test in the absence of the escape platform (free swim) to assess the memory of the platform location as measured by time spent searching at the target location.
To assess the acute and chronic effects of Compound 1 treatment, rats received 15-16 days of drug injections with assessment on the water maze on the first day (acute effect) and last day (chronic effect) of treatment. Different surrounding spatial cues and escape location in the water maze were used for the initial and subsequent assessments. Compound 1 was given at 10 mg/kg using intraperitoneal injection (IP) at a volume of 1 ml/kg. […]

[3] = system: aged-impaired rats

COCc1nnc2n1Cc1c(C#Cc3cnc(OC)s3)ncn1-c1ccc(Cl)cc1-2 [Compound 1]
number of errors in the radial arm maze vs vehicle [1]: fewer errors
time spent in the target quadrant of the Morris Water Maze ([2]; acute (first day of treatment)): spent more time in the target quadrant
time spent in the target quadrant of the Morris Water Maze ([2]; chronic (last day of 15-16 days of injections)): spent more time in the target quadrant
efficacy of Compound 1 on its own in the radial arm maze ([3]; Compound 1 2.5 mg/kg IP alone): subtherapeutic
efficacy of Compound 1 on its own in the radial arm maze ([3]; Compound 1 5 mg/kg IP alone): subtherapeutic
